From patent publication US11230538B2, “Herbicides” (SYNGENTA PARTICIPATIONS AG, priority 2016, dated 2022)

Key:
Type in all cases: in vivo
[1] = tested on: Alopecurus myosuroides (ALOMY); assay: B1 Pre-emergence herbicidal activity; design: key: 5=total damage to plant; 0=no damage to plant; conditions: pre-emergence application, rate 1000 g/ha, evaluated after 13 days
Procedure, shortened: (§1)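 Test species received a pre-emergence application one day post-sowing in an acetone/water solution with 0.5% Tween 20. Phytotoxicity was assessed 13 days later on a scale where 0 means no damage and 5 total plant death.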

Avena fatua (AVEFA) [2] = assay: B1 Pre-emergence herbicidal activity; design: key: 5=total damage to plant; 0=no damage to plant; conditions: pre-emergence application, rate 1000 g/ha, evaluated after 13 days
Procedure, shortened: as §1

[3] = tested on: Triticum aestivium (TRZAW); assay: B1 Pre-emergence herbicidal activity; design: key: 5=total damage to plant; 0=no damage to plant; conditions: pre-emergence application, rate 1000 g/ha, evaluated after 13 days
Procedure, shortened: as §1

[4] = tested on: Echinochloa crus-galli (ECHCG); assay: B1 Pre-emergence herbicidal activity; design: key to Pre-emergence herbicidal activity, ECHCG (damage score 0-5): 5=total damage to plant; 0=no damage to plant; conditions: pre-emergence application, rate 1000 g/ha, evaluated after 13 days
Procedure, shortened: as §1

Lolium perenne (LOLPE) [5] = assay: B1 Pre-emergence herbicidal activity; design: key to Pre-emergence herbicidal activity, LOLPE (damage score 0-5): 5=total damage to plant; 0=no damage to plant; conditions: pre-emergence application, rate 1000 g/ha, evaluated after 13 days
Procedure, shortened: as §1

Setaria fabenr (SETFA) = assay: B1 Pre-emergence herbicidal activity; design: key to Pre-emergence herbicidal activity, SETFA (damage score 0-5): 5=total damage to plant; 0=no damage to plant; conditions: pre-emergence application, rate 1000 g/ha, evaluated after 13 days
Procedure, shortened: as §1

Avena fatua (AVEFA) [6] = assay: B2 Post-emergence herbicidal activity; conditions: post-emergence application, rate 1000 g/ha, evaluated after 13 days
Experimental: (§2) Seeds of a variety of test species were sown in standard soil in pots: Triticum aestivium (TRZAW), Avena fatua (AVEFA), Alopecurus myosuroides (ALOMY), Echinochloa crus-galli (ECHCG), Lolium perenne (LOLPE), Zea Mays (ZEAMX), Abutilon theophrasti (ABUTH), Amaranthus retroflexus (AMARE) and Setaria fabenri (SETFA). After 8 days cultivation (post-emergence) under controlled conditions in a glasshouse (at 24/16° C., day/night; 14 hours light; 65% humidity), the plants were sprayed with an aqueous spray solution derived from the formulation of the technical active ingredient in acetone I water (50:50) solution containing 0.5% Tween 20 (polyoxyethelyene sorbitan monolaurate, CAS RN 9005-64-5). The test plants were then grown in a glasshouse under controlled conditions (at 24/16° C., day/night; 14 hours light; 65% humidity) and watered twice daily. After 13 days, the test was evaluated (5=total damage to plant; 0=no damage to plant).

[7] = tested on: Echinochloa crus-galli (ECHCG); assay: B2 Post-emergence herbicidal activity; design: key to Post-emergence herbicidal activity, ECHCG (damage score 0-5): 5=total damage to plant; 0=no damage to plant; conditions: post-emergence application, rate 1000 g/ha, evaluated after 13 days
Procedure, shortened: (§3)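 Scores run from 0 for undamaged to 5 for fully killed plants, assessed 13 days post-spray. Application was post-emergence at 8 days of growth, using an acetone/water (50:50), 0.5% Tween 20 spray solution; growth at 24 °C day, 16 °C night, 65% humidity.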

Lolium perenne (LOLPE) [8] = assay: B2 Post-emergence herbicidal activity; conditions: post-emergence application, rate 1000 g/ha, evaluated after 13 days
Experimental: as §2

[9] = tested on: Alopecurus myosuroides (ALOMY); assay: B2 Post-emergence herbicidal activity; design: key: 5=total damage to plant; 0=no damage to plant; conditions: post-emergence application, rate 1000 g/ha, evaluated after 13 days
Procedure, shortened: as §3

Setaria fabenri (SETFA) = assay: B2 Post-emergence herbicidal activity; design: key: 5=total damage to plant; 0=no damage to plant; conditions: post-emergence application, rate 1000 g/ha, evaluated after 13 days
Procedure, shortened: as §3

[10] = tested on: Triticum aestivium (TRZAW); assay: B2 Post-emergence herbicidal activity; design: key: 5=total damage to plant; 0=no damage to plant; conditions: post-emergence application, rate 1000 g/ha, evaluated after 13 days
Procedure, shortened: as §3

Compound	Pre-emergence herbicidal activity, ALOMY (damage score 0-5) [1]	Pre-emergence herbicidal activity, AVEFA (damage score 0-5) (Avena fatua (AVEFA) [2])	Pre-emergence herbicidal activity, TRAZW (damage score 0-5) [3]	Pre-emergence herbicidal activity, ECHCG (damage score 0-5) [4]	Pre-emergence herbicidal activity, LOLPE (damage score 0-5) (Lolium perenne (LOLPE) [5])	Pre-emergence herbicidal activity, SETFA (damage score 0-5) (Setaria fabenr (SETFA))	Post-emergence herbicidal activity, AVEFA (damage score 0-5) (Avena fatua (AVEFA) [6])	Post-emergence herbicidal activity, ECHCG (damage score 0-5) [7]	Post-emergence herbicidal activity, LOLPE (damage score 0-5) (Lolium perenne (LOLPE) [8])	Post-emergence herbicidal activity, ALOMY (damage score 0-5) [9]	Post-emergence herbicidal activity, SETFA (damage score 0-5) (Setaria fabenri (SETFA))	Post-emergence herbicidal activity, TRAZW (damage score 0-5) [10]
CCC(=O)Nc1ccc(-c2cncc(F)c2)nc1C#N [Compound C115]	0	0	0	5	1	5	2	4	1	0	5	0
CC(C)C(=O)Nc1ccc(-c2cncc(C#N)c2)nc1C(F)(F)F [Compound C11]	0	0	0	1	1	4	2	3	1	1	5	0
COCCC(=O)Nc1ccc(-c2cncc(F)c2)nc1C(F)(F)F [Compound C24]	1	4	0	4	1	5	4	5	4	1	5	1
O=C(Nc1ccc(-c2cncc(F)c2)nc1C(F)(F)F)c1cc(F)c(F)cc1F [Compound C33]	0	1	0	1	1	2	2	2	1	0	3	0
CCC(=O)N(CCC(F)F)c1ccc(-c2cncc(F)c2)nc1C(F)(F)F [Compound C62]	0	2	0	3	1	4	4	5	2	1	5	1
O=C(Nc1ccc(-c2cncnc2)nc1C(F)(F)F)C1CC1 [Compound C109]	0	2	0	4	1	4	3	5	2	0	5	1
CC(=O)N(C(C)=O)c1ccc(-c2cncc(F)c2)nc1C(F)(F)F [Compound C5, N-acetyl-N-[6-(5-fluoro-3-pyridyl)-2-(trifluoromethyl)-3-pyridyl]acetamide]	1	3	0	4	1	5	4	4	4	1	5	0
C=CCN(C(=O)C(C)C)c1ccc(-c2cncc(F)c2)nc1C(F)(F)F [Compound C16]	0	1	0	4	2	5	4	5	3	1	5	1
CC(C)(C)C(=O)Nc1ccc(-c2cncc(F)c2)nc1C(F)(F)F [Compound C34]	0	0	0	2	0	5	3	4	2	1	5	1
CC(=O)N(C(C)=O)c1ccc(-c2cncnc2)nc1C(F)(F)F [Compound C6]	1	4	1	4	2	4	4	4	4	1	5	1
O=C(Nc1ccc(-c2cncc(F)c2)nc1C(F)(F)F)c1c(F)cccc1F [Compound C31]	1	2	0	4	0	5	3	5	3	0	5	0
